According to US10029993B2, “Disubstituted 1, 2, 4-triazine compound” (MITSUBISHI TANABE PHARMA CORPORATION, priority 2014, dated 2018):
pIC50: −log10 of the molar value.

Target: human CYP11B2 (Homo sapiens (Human), UniProt P19099)
Test: Inhibitory effect on hCYP11B2 (aldosterone production by mitochondrial fraction of V79 cells stably expressing human CYP11B2, HTRF)
Type: biochemical
Settings: 0.5 μmol/L deoxycorticosterone, 150 μmol/L NADPH, 1.5-2 hours at room temperature
Procedure: Experimental Example 1 (Inhibitory Effect on hCYP11B2)
The pcDNA3.1-human CYP11B2 plasmid was transfected into a Chinese hamster lung fibroblast V79 cell line to produce a cell line stably expressing human CYP11B2 gene.
The cells were cultured and grown in the Dulbecco's modified Eagle's/Ham's medium supplemented with 10% fetal bovine serum and 1% G418 disulfate solution under the environment of 37° C., 95% air, and 5% CO2, and the grown cells were harvested.
Then, the cells were fractionated to obtain mitochondria by reference to a method described in Chabre et al. JCE 86 M 85 (11) 4060-68, 2000. In particular, the cells suspended in a 5 mmol/L Tris-HCl buffer (pH 7.4) containing 250 mmol/L sucrose were homogenized in a Teflon (Registered Trademark) Potter Elvehjem homogenizer, and then the suspension was centrifuged (800×g, 15 min.). The supernatant was separated and again centrifuged (10000×g, 15 min.) to obtain a pellet (mitochondrial fraction).
The mitochondrial fraction diluted with a buffer containing 10 mmol/L KH2PO4, 10 mmol/L Tris, 20 mmol/L KCl, 25 mmol/L sucrose, 5 mmol/L MgCl2, and 0.05% bovine serum albumin was dispensed to a 96-well plate. 0.5 μmol/L Deoxycorticosterone, 150 μmol/L NADPH and a compound of each concentration were added to each well, and incubated for 1.5-2 hours at room temperature to produce aldosterone. An amount of the produced aldosterone in the incubated solution was determined by using HTRF (Homogeneous Time Resolved Fluorescence) method.
IC 50 (nmol/L) was calculated by analyzing the aldosterone production inhibition rate (%) of each concentration of compounds by non-linear regression to a logistic curve.

Chain of human CYP11B2 (P19099 25-503): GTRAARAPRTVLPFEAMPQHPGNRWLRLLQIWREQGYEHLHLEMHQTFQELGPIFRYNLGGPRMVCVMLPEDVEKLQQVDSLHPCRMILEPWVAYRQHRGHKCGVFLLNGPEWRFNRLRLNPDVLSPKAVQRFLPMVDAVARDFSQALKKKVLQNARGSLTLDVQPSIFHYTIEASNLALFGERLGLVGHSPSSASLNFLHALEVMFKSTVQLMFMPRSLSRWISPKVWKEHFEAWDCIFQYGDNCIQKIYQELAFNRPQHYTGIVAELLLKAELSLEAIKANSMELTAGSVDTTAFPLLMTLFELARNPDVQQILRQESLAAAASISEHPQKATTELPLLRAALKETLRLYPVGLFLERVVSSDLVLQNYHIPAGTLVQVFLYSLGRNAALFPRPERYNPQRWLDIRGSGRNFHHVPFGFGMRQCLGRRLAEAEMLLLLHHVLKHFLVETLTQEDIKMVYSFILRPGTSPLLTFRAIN

| SMILES | pIC50 |
| --- | --- |
| CC(C)[C@@H](CO)NC(=O)CN1CCN(c2nncc(-c3ccc(C(F)(F)F)cc3)n2)CC1 [Example 16] | 7.80 |
| CN(C)[C@H]1CC[C@H](NC(=O)CN2CCN(c3nncc(-c4ccc(Cl)cc4)n3)CC2)CC1 [Example 18] | 8.10 |
| CO[C@H]1CC[C@H](NC(=O)CN2CCN(c3nncc(-c4ccc5c(cnn5C)c4)n3)CC2)CC1 [Example 19] | 7.77 |
| O=C1CN([C@H]2CC[C@H](NC(=O)CN3CCN(c4nncc(-c5ccc(F)cc5)n4)CC3)CC2)CCN1 [Example 26] | 8.07 |
| O=C(CN1CCN(c2nncc(-c3ccc(Cl)cc3)n2)CC1)NC1CCS(=O)(=O)CC1 [Example 27] | 7.89 |
| O=C(CN1CCN(c2nncc(-c3ccc(F)cc3)n2)CC1)N[C@H]1CC[C@H](N2CCOCC2)CC1 [Example 28] | 8.08 |
| O=C(CN1CCN(c2nncc(-c3ccc(F)cc3)n2)CC1)NC1CCN(CC(=O)N2CCOCC2)CC1 [Example 38] | 7.85 |
| CNC(=O)CN1CCC(NC(=O)CN2CCN(c3nncc(-c4ccc(F)cc4)n3)CC2)CC1 [Example 44] | 7.77 |
| O=C(CN1CCN(c2nncc(-c3ccc(F)cc3)n2)CC1)NCCN1CCS(=O)(=O)CC1 [Example 47] | 7.96 |
| CC(=O)N[C@H]1CC[C@H](NC(=O)CN2CCN(c3nncc(-c4ccc(C)cc4)n3)CC2)CC1 [Example 48] | 8.05 |
| Cc1ccc(-c2cnnc(N3CCN(CC(=O)N[C@H]4CC[C@H](S(C)(=O)=O)CC4)CC3)n2)cc1 [Example 50] | 8.20 |
| CN1CC[C@H](NC(=O)CN2CCN(c3nncc(-c4ccc(Cl)cc4)n3)CC2)CC1=O [Example 54] | 8.14 |
| CNC(=O)CO[C@H]1CC[C@H](NC(=O)CN2CCN(c3nncc(-c4ccc(F)cc4)n3)CC2)CC1 [Example 55] | 8.06 |
| NC(=O)N1CCC(O)(CNC(=O)CN2CCN(c3nncc(-c4ccc(Cl)cc4)n3)CC2)CC1 [Example 59] | 7.72 |
| Cc1ccc(-c2cnnc(N3CCN(CC(=O)NC4CCN(CCNS(C)(=O)=O)CC4)CC3)n2)cc1 [Example 62] | 8.00 |
| CN(C)C(=O)Cn1cc(NC(=O)CN2CCN(c3nncc(-c4ccc(F)cc4)n3)CC2)cn1 [Example 71] | 8.21 |
| Cc1ccc(-c2cnnc(N3CCN(CC(=O)Nc4cnn(CC(=O)N(C)C)c4)CC3)n2)cc1 [Example 75] | 8.12 |
| CN(C)C(=O)Cn1cc(NC(=O)CN2CCN(c3nncc(-c4ccc(Cl)cc4)n3)CC2)cn1 [Example 76] | 8.35 |

| SMILES | pIC50 |
| --- | --- |
| CNC(=O)Cn1cc(NC(=O)CN2CCN(c3nncc(-c4ccc(C)cc4)n3)CC2)cn1 [Example 79] | 8.35 |
| CNC(=O)Cn1cc(NC(=O)CN2CCN(c3nncc(-c4ccc(F)cc4)n3)CC2)cn1 [Example 80] | 8.35 |
| CNC(=O)Cn1cc(NC(=O)CN2CCN(c3nncc(-c4ccc(Cl)cc4)n3)CC2)cn1 [Example 81] | 8.57 |
| CN1CCNC(=O)C12CCC(NC(=O)CN1CCN(c3nncc(-c4ccc(F)cc4)n3)CC1)CC2 (stereo not drawn) [Example 82] | 7.92 |
| CN(C)[C@H]1CC[C@H](NC(=O)CN2CCN(c3nncc(-c4cc(F)ccc4F)n3)CC2)CC1 [Example 83] | 8.12 |
| CN1CC[C@H](NC(=O)CN2CCN(c3nncc(-c4ccc5c(c4)COC5)n3)CC2)CC1=O [Example 84] | 7.60 |
| CNC(=O)CN1CCC(NC(=O)CN2CCN(c3nncc(-c4ccc(C)cc4)n3)CC2)CC1 [Example 85] | 8.00 |
| Cc1ccccc1-c1cnnc(N2CCN(CC(=O)Nc3cccnc3)CC2)n1 [Example 86] | 9.30 |
| O=C(CN1CCN(c2nncc(-c3ccc(F)cc3)n2)CC1)NC1CN(C(=O)C2(O)CC2)C1 [Example 141] | 7.96 |
| Cc1ncc(CN2CCC(NC(=O)CN3CCN(c4nncc(-c5ccc(F)cc5)n4)CC3)CC2)[nH]1 [Example 147] | 7.74 |
| O=C(CN1CCN(c2nncc(-c3ccc(F)cc3)n2)CC1)NC1CCN(CC2=NCCN2)CC1 [Example 151, 3-[4-[[1-[(4,5-dihydro-1H-imidazol-2-yl)methyl]piperidin-4-yl]carbamoylmethyl]piperazin-1-yl]-5-(4-fluorophenyl)-1,2,4-triazine] | 7.80 |
| Cc1nc[nH]c1CN1CCC(NC(=O)CN2CCN(c3nncc(-c4ccc(F)cc4)n3)CC2)CC1 [Example 153] | 7.74 |
| Cc1nc[nH]c1CN1CCC(NC(=O)CN2CCN(c3nncc(-c4ccc(Cl)cc4)n3)CC2)CC1 [Example 154] | 8.96 |
| O=C(CN1CCN(c2nncc(-c3ccc(C(F)(F)F)cc3)n2)CC1)NC1CC2COCC(C1)C2O (stereo not drawn) [Example 157a, 3-[4-[[(7-exo-9-endo)-9-hydroxy-3-oxabicyclo[3.3.1]nonan-7-yl]carbamoylmethyl]piperazin-1-yl]-5-(4-trifluoromethylphenyl)-1,2,4-triazine] | 7.85 |
| CN1CCO[C@@H](CNC(=O)CN2CCN(c3nncc(-c4ccc(F)cc4)n3)CC2)C1 [Example 159a, 5-(4-fluorophenyl)-3-[4-[[(4-methylmorpholyn-2-yl)methyl]carbamoylmethyl]piperazin-1-yl]-1,2,4-triazine] | 8.11 |
| Cc1ccccc1-c1cnnc(N2CCN(c3ccc(F)cc3)CC2)n1 [Example 170, 3-[4-(4-fluorophenyl)piperazin-1-yl]-5-(o-tolyl)-1,2,4-triazine] | 7.64 |
| Clc1ccc(-c2cnnc(N3CCN(C4CCOCC4)CC3)n2)cc1 [Example 178] | 8.30 |
| CC(C)NC(=O)NC1CCN(c2nncc(-c3ccc(F)cc3)n2)CC1 [Example 180] | 8.21 |

Other lines, results leading:

| pIC50 | SMILES |
| --- | --- |
| 7.82 | CN(C)[C@H]1CC[C@H](NC(=O)C(O)C2CCN(c3nncc(-c4ccc(F)cc4)n3)CC2)CC1 (relative stereo) [Example 252, 3-[4-[[[trans-4-(dimethylamino)cyclohexyl]carbamoyl]hydroxymethyl]piperidino]-5-(4-fluorophenyl)-1,2,4-triazine] |
| 9.15 | Cc1ccccc1-c1cnnc(N2CCC(CCCO)CC2)n1 [Example 183] |
| 8.22 | Cc1ccccc1-c1cnnc(N2CC[C@@H](Oc3ccncc3)C2)n1 [Example 188] |
| 7.42 | CN(CCCS(C)(=O)=O)c1nncc(-c2ccc3ccccc3c2)n1 [Example 192] |
| 7.17 | CC(=O)N1CCC(CNc2nncc(-c3ccc4ccccc4c3)n2)CC1 [Example 196] |
| 7.92 | O=C1NCC2(CCN(c3nncc(-c4ccc5ccccc5c4)n3)CC2)O1 [Example 199] |
| 8.62 | Cn1c(-c2cnnc(N3CCOCC3)n2)cc2ccccc21 [Example 211, 5-(1-methyl-1H-indol-2-yl)-3-morpholino-1,2,4-triazine] |
| 7.54 | CC(C)NC(=O)CN1CCN(c2nncc(-c3ccc(C#N)nc3)n2)CC1 [Example 215, 5-(2-cyano-5-pyridyl)-3-[4-(isopropylcarbamoylmethyl)piperazin-1-yl]-1,2,4-triazine] |
| 8.01 | CC(C)NC(=O)CN1CCN(c2nncc(-c3cccc4c3COCC4)n2)CC1 [Example 218] |
| 8.51 | CC(C)NC(=O)CN1CCN(c2nncc(-c3ccc4c(c3)CCO4)n2)CC1 [Example 219] |
| 7.70 | CC(C)NC(=O)CN1CCN(c2nncc(-c3ccc4ncsc4c3)n2)CC1 [Example 220] |
| 8.62 | CC(C)NC(=O)CN1CCN(c2nncc(-c3ccc(C(F)(F)F)cc3)n2)CC1 [Example 221] |
| 7.59 | CC(C)NC(=O)CN1CCN(c2nncc(-c3ccc4c(c3)CNN4C)n2)CC1 [Example 222] |
| 7.70 | c1nnc(N2CCOCC2)nc1CC1CCCCC1 [Example 233, 5-cyclohexylmethyl-3-morpholino-1,2,4-triazine] |
| 7.64 | Cc1ccccc1-c1cnnc(N(Cc2ccccn2)S(C)(=O)=O)n1 [Example 236, 3-[N-(methylsulfonyl)-N-(2-pyridylmethyl)amino]-5-(o-tolyl)-1,2,4-triazine] |
| 7.96 | Cc1ccccc1-c1cnnc(C2CCCN(c3ncccn3)C2)n1 (stereo not drawn) [Example 244, 3-[1-(pyrimidine-2-yl)-piperidin-3-yl]-5-(o-tolyl)-1,2,4-triazine] |
| 8.12 | CC(C)CC(=O)NN1CCN(c2nncc(-c3ccc(Cl)cc3)n2)CC1 [Example 251, 5-(4-chlorophenyl)-3-[4-[(3-methylbutanoyl)amino]piperazin-1-yl]-1,2,4-triazine] |
| 7.59 | c1ccc(COc2cnnc(N3CCOCC3)n2)cc1 [Example 256, 5-benzyloxy-3-morpholino-1,2,4-triazine] |
| 7.89 | Clc1ccc(CNc2cnnc(N3CCOCC3)n2)cc1 [Example 257, 5-(4-chlorobenzyl) amino-3-morpholino-1,2,4-triazine] |
| 7.89 | CN(C)[C@@H]1CCC[C@H](NC(=O)CN2CCN(c3nncc(-c4ccc(F)cc4)n3)CC2)C1 [compound 160] |
| 8.21 | C[C@H]1COCCC1NC(=O)CN1CCN(c2nncc(-c3ccc(Cl)cc3)n2)CC1 (stereo partly drawn) [compound 161] |
